Experimental data: ChEMBL document CHEMBL1143301, “Novel HDAC6 isoform selective chiral small molecule histone deacetylase inhibitors” (Bioorg Med Chem Lett, 2009)
Calls of active or inactive are those of the source. The calls are words filed in the database; no cut-off is given here.

Assays:
T-24 [1] = assay: Induction of histone H3 acetylation in human T24 cells; format: functional, cell-based
T-24 [2] = assay: Induction of alpha tubulin acetylation in human T24 cells; format: functional, cell-based
T-24 [3] = assay: Selectivity ratio of EC50 for histone H3 acetylation to EC50 for alpha-tubulin acetylation in human T24 cells
[4] = target: T1, Protein deacetylase HDAC6 (Homo sapiens, UniProt Q9UBN7)
T1 sequence (Q9UBN7 whole entry): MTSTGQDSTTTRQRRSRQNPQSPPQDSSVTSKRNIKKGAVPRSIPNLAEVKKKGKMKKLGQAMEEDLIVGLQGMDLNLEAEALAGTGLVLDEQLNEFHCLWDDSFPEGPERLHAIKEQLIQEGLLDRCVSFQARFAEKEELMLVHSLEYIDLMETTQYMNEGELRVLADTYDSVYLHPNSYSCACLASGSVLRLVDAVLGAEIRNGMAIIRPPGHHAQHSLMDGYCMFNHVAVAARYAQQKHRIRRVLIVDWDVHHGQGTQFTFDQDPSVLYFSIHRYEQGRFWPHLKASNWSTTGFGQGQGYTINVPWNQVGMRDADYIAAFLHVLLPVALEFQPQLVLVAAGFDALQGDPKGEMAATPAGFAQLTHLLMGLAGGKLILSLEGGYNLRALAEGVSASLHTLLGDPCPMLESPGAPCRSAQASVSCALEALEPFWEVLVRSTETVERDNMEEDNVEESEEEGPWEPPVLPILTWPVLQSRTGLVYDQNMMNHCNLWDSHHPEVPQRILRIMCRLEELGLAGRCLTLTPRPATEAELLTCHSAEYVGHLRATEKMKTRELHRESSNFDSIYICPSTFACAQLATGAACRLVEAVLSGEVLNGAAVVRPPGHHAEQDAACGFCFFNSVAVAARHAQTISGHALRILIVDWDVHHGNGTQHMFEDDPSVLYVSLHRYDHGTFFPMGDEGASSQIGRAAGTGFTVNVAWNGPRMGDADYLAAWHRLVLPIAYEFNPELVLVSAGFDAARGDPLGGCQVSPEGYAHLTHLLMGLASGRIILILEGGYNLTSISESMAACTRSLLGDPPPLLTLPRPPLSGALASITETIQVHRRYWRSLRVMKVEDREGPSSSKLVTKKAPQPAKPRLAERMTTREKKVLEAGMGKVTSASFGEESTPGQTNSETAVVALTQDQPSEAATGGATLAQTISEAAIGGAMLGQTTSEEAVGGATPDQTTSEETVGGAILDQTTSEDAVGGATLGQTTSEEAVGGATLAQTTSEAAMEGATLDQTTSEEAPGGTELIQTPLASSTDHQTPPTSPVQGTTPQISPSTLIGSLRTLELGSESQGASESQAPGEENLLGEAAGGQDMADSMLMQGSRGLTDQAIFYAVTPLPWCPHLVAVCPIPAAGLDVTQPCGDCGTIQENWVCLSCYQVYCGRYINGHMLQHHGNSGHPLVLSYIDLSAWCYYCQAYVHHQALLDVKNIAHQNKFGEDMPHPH
Description: Inhibition of human recombinant histone deacetylase 6

Histone deacetylase 2 = Histone deacetylase 2 (Homo sapiens, UniProt Q92769)
Histone deacetylase 2, sequence (Q92769 whole entry): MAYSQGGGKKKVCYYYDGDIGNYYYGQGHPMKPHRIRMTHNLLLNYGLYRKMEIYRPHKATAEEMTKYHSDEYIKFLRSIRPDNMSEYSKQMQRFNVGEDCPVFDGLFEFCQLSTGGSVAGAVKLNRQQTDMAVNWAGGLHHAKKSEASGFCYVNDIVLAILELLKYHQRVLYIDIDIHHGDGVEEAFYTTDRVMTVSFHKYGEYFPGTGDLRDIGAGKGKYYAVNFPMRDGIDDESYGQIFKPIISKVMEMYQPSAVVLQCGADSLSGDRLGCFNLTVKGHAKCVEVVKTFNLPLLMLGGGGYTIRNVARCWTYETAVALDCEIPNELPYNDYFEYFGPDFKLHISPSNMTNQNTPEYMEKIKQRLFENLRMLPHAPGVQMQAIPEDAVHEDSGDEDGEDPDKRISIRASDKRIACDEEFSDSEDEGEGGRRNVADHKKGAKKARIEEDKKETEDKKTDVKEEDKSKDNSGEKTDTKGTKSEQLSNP
Description: Inhibition of human recombinant histone deacetylase 2

Histone deacetylase 8 = target: T2, Histone deacetylase 8 (Homo sapiens, UniProt Q9BY41); assay: Inhibition of human recombinant histone deacetylase 8
T2 sequence (Q9BY41 whole entry): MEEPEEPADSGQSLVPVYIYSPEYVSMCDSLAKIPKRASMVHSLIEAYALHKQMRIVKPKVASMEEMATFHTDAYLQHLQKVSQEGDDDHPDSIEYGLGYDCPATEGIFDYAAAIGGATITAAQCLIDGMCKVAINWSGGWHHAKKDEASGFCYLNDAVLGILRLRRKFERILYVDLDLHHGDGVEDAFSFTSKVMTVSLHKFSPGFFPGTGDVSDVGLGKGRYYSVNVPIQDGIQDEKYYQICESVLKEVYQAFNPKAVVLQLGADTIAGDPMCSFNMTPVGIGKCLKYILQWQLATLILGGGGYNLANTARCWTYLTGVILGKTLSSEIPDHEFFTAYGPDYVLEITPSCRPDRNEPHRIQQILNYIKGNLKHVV

Homo sapiens [5] = organism: Homo sapiens; assay: Selectivity ratio of IC50 for human recombinant histone deacetylase 8 to IC50 for human recombinant histone deacetylase 6
Homo sapiens [6] = organism: Homo sapiens; assay: Selectivity ratio of IC50 for human recombinant histone deacetylase 2 to IC50 for human recombinant histone deacetylase 6
T-24 [7] = assay: Induction of alpha tubulin acetylation in human T24 cells at 1 uM preincubated 16 hrs before whole-cell lysate by Western blot analysis; format: functional, cell-based

| SMILES | EC50 (T-24 [1]) [nM] | EC50 (T-24 [2]) [nM] | Selectivity Index (T-24 [3]) | IC50 [4] [nM] | IC50 (Histone deacetylase 2) [nM] | IC50 (Histone deacetylase 8) [nM] | Ratio IC50 (Homo sapiens [5]) | Ratio IC50 (Homo sapiens [6]) | Ratio EC50 (T-24 [3]) | Activity (T-24 [7]) |
| --- | --- | --- | --- | --- | --- | --- | --- | --- | --- | --- |
| CC(/C=C/C(=O)NO)=C\[C@@H](C)C(=O)c1ccc(N(C)C)cc1 (racemic) [TRICHOSTATIN] | 10 | 10 | – | – | – | – | – | – | – | – |
| O=C(CCCCCCC(=O)Nc1ccc([C@H]2O[C@@H](CSc3nc(-c4ccccc4)c(-c4ccccc4)o3)C[C@@H](c3ccc(CO)cc3)O2)cc1)NO [TUBACIN] | – | – | 75 | – | – | – | – | – | – | – |
| O=C(NO)c1ccc(CN2C(=O)CNC(=O)[C@H]2Cc2cccs2)cc1 | 9000 | 2000 | – | 160 | 3470 | 440 | 3 | 22 | – | – |
| O=C(NO)c1ccc(CN2c3ccccc3NC(=O)[C@H]2Cc2ccc(O)cc2)cc1 | – | – | – | 10 | 330 | 730 | 91 | 41 | – | – |
| CC(C)(C)OC(=O)NCCCC[C@@H]1C(=O)Nc2ccccc2N1Cc1ccc(C(=O)NO)cc1 | 6750 | 90 | – | 40 | 1480 | 1150 | 27 | 34 | 75 | – |
| O=C1CN(Cc2ccc(C(=O)NO)cc2)c2ccccc2N1 | 3580 | 1010 | – | 150 | 560 | 520 | 3 | 4 | – | – |
| O=C(NO)c1ccc(CN2c3ccccc3NC(=O)[C@H]2Cc2ccc(F)c(F)c2)cc1 | – | – | – | 40 | 460 | 420 | 10 | 11 | – | – |
| O=C(NO)c1ccc(CN2c3ccccc3NC(=O)[C@H]2CCc2ccccc2)cc1 | – | – | – | 10 | 520 | 640 | 49 | 40 | – | – |
| CC(C)(C)Oc1ccc(C[C@@H]2C(=O)Nc3ccccc3N2Cc2ccc(C(=O)NO)cc2)cc1 | 2750 | 80 | >13 | 50 | 1440 | 250 | 5 | 28 | – | – |
| O=C(NO)c1ccc(CN2C(=O)CNC(=O)[C@H]2Cc2c[nH]c3ccccc23)cc1 | 12100 | 2870 | – | 110 | 1810 | 1210 | 11 | 17 | – | – |
| O=C(NO)c1ccc(CN2C(=O)CNC(=O)[C@H]2Cc2ccccc2)cc1 | 23000 | 1490 | >13 | 170 | 5540 | 2340 | 14 | 33 | – | – |
| O=C(NO)c1ccc(CN2c3ccccc3NC(=O)[C@@H]2Cc2cccs2)cc1 | 2300 | 230 | – | 310 | 1480 | 1190 | 4 | 5 | – | – |
| O=C(NO)c1ccc(CN2c3ccccc3NC(=O)[C@@H]2Cc2ccccc2)cc1 | 1900 | 320 | – | 220 | 460 | 210 | 1 | 2 | – | – |
| O=C(NO)c1ccc(CN2c3ccccc3NC(=O)[C@H]2Cc2cccs2)cc1 | 1220 | 70 | >13 | 40 | 870 | 690 | 17 | 21 | – | Active |
| O=C(NO)c1ccc(CN2c3ccccc3NC(=O)[C@H]2Cc2ccccc2)cc1 | 520 | 40 | >13 | 10 | 260 | 530 | 53 | 26 | – | – |
